From patent US8349877B2, “Ternary fungicidal compositions comprising boscalid and chlorothalonil” (BASF SE, priority 2007, dated 2013)
Where two headings read alike, the source gives them in different places.

Legend:
Fusarium culmorum = assay: Activity against Fusarium culmorum in the microtiterplate test; assay type: cell-based; conditions: 0.063 ppm; 7 days after inoculation
Pyricularia oryzae = assay type: cell-based; conditions: 7 days after inoculation
Colleotrichum truncatum = assay: Activity against Colleotrichum truncatum in the microtiterplate test; assay type: cell-based; conditions: 168 h, read-out: Observed efficacy
Alternaria solani = conditions: 4 ppm; 7 days after inoculation
[1] = 4 ppm, 7 days after inoculation

CC1(C)CCC(Cc2ccc(Cl)cc2)C1(O)Cn1cncn1 (stereo not drawn) [Metconazol, 5-(4-chlorobenzyl)-2,2-dimethyl-1-[1,2,4]triazol-1-ylmethylcyclopentanol]
Observed efficacy (Fusarium culmorum): 31%
Observed efficacy (Pyricularia oryzae; 0.063 ppm): 0%
Observed efficacy (Pyricularia oryzae; 0.25 ppm): 5%

CC(C)(C)C(O)(CCc1ccc(Cl)cc1)Cn1cncn1 (stereo not drawn) [Tebuconazole, 1-(4-chlorophenyl)-4,4-dimethyl-3-[1,2,4]triazol-1-ylmethylpentan-3-ol]
inhibition of growth at 4 ppm (Colleotrichum truncatum; [1]): 0%
Observed efficacy (Alternaria solani): 0%

Cc1cc(C)nc(Nc2ccccc2)n1 [Pyrimethanil, 4,6-dimethylpyrimidin-2-ylphenylamine]
inhibition of growth at 4 ppm (Colleotrichum truncatum; [1]): 7%

CC1(C)CC/C(=C\c2ccc(Cl)cc2)C1(O)Cn1cncn1 (stereo not drawn) [Triticonazol, (5E)-5-[(4-chlorophenyl)methylene]-2,2-dimethyl-1-(1H-1,2,4-triazol-1-ylmethyl)cyclopentanol]
inhibition of growth at 1 ppm (Colleotrichum truncatum; 7 days after inoculation): 7%

CC(C)NC(=O)N1CC(=O)N(c2cc(Cl)cc(Cl)c2)C1=O [Iprodion, N-isopropyl-3-(3,5-dichlorophenyl)-2,4-dioxoimidazolidine-1-carboxamide]
inhibition of growth at 1 ppm (Colleotrichum truncatum; 7 days after inoculation): 7%

CO/N=C(/C1=NOCCO1)c1ccccc1Oc1ncnc(Oc2ccccc2Cl)c1F [Fluoxastrobin, (E)-{2-[6-(2-chlorophenoxy)-5-fluoropyrimidin-4-yloxy]phenyl}(5,6-dihydro-1,4,2-dioxazin-3-yl)methanone O-methyloxime]
inhibition of growth at 1 ppm (Colleotrichum truncatum; 7 days after inoculation): 32%

CC(C)OC(=O)N[C@H](C(=O)N[C@H](C)c1nc2ccc(F)cc2s1)C(C)C [Benthivalicarb, isopropyl {(S)-1-[(1R)-1-(6-fluorobenzothiazol-2-yl)-ethylcarbamoyl]-2-methylpropyl}carbamate]
inhibition of growth at 4 ppm (Colleotrichum truncatum): 0%
Observed efficacy (Alternaria solani): 0%

O=C1C2CC=CCC2C(=O)N1SC(Cl)(Cl)Cl (stereo not drawn) [Captan, N-(trichloromethylthio)cyclohex-4-ene-1,2-dicarboximide]
inhibition of growth at 1 ppm (Colleotrichum truncatum; 7 days after inoculation): 49%

COC=C(C(=O)OC)c1ccccc1COc1cccc(C(F)(F)F)n1 [Picoxystrobin, methyl 3-methoxy-2-[2-(6-trifluoromethylpyridin-2-yloxymethyl)phenyl]-acrylate]
inhibition of growth at 0.25 ppm (Colleotrichum truncatum; 0.25 ppm, 7 days after inoculation): 32%

Fc1ccc([C@]2(Cn3cncn3)O[C@H]2c2ccccc2Cl)cc1 (racemic) [Epoxiconazol, (2RS,3SR)-1-[3-(2-chlorophenyl)-2,3-epoxy-2-(4-fluorophenyl)propyl]-1H-1,2,4-triazole]
Observed efficacy (Pyricularia oryzae; 0.063 ppm): 4%
Observed efficacy (Pyricularia oryzae; 1 ppm): 40%
